Measured values from paper PMC13086964, “USP7 deubiquitinase stabilizes FAN1 to support DNA crosslink repair and suppress CAG repeat expansion” (Nature Communications, 2026).
Each block holds one molecule with its values, some of them ahead of it. Where a SMILES comes first, the peptide text is derived from it. The star is where a group is joined. Cbz = O=C(OCc1ccccc1)*

How the values were obtained:
FAN1 = experiment: pull-down of MBP-His-FAN1 by biotin-tagged USP7 fragments; format: binding, human; conditions: biotin-tagged USP7 fragments 6 µg, MBP-His-FAN1 1 µg
Method: All plasmids were transformed into BL21(DE3)-pBirAcm cells. The cells were grown using a Large-scale EXpression (LEX) bioreactor at 37 °C. Once OD600 reached 0.7, the temperature was reduced to 15 °C. At OD600 0.8-1, expression of biotinylated proteins was induced by adding 25 mg/L biotin and 0.5 mM isopropyl β-d-1-thiogalactopyranoside (IPTG), and growth continued overnight. Cell cultures were harvested by centrifugation at 6500 g, 10 min, 10 °C (JLA8.1000). Pellets were flash-frozen in liquid nitrogen and stored at −80 °C prior to purification. Cell pellets were thawed, diluted with pre-chilled resuspension buffer (20 mM HEPES pH7.4, 500 mM NaCl, 5% (v/v) glycerol, 1 mM TCEP) and supplemented with 3 μg/ml benzonase, 2 mM MgSO4 and 0.8 mM PMSF/benzamidine-HCl. The mixture was homogenized and lysed by sonication, 60 cycles of 5 s pulse followed by 7.5 s rest. Cell lysates were clarified by centrifugation at 40000 g, 1 hr, 10 °C (JLA16.250). […] Protein purity was analysed by SDS-PAGE and identity was confirmed by mass spectrometry. […]
Transformed clones of chemocompetent BL21 bacteria were picked and inoculated in LB medium supplemented with 50 μg/ml kanamycin, subsequently incubated at 37 °C overnight under agitation at 250 rpm. […] Purity of the protein was assessed by boiling in SDS sample buffer and separating by SDS-PAGE followed by staining using Coomassie Blue. […]

FAN1 protein level = experiment: immunoblot of FAN1 protein levels, RPE-1 cells; format: cell-based, human; conditions: USP7-depleted RPE-1 cells, MG-132 10 μM for 6 h
Method: (§1) Fig. 3 USP7 deubiquitinates FAN1 controlling its protein levels. A RPE-1 parental and p53 KO cell lines were transfected with either non-targeting (Ctrl) or USP7 siRNA oligos. 48 h later, whole-cell lysates were analysed by immunoblotting. B Doxycycline-inducible U2OS^eGFP-FAN1 cells were transfected with either non-targeting (Ctrl) or USP7 siRNA oligos. 24 h later, GFP-FAN1 expression was induced with Dox (100 ng/ml) for 24 h and whole-cell lysates were analysed by immunoblotting. C Same cells as in B were induced with Dox (100 ng/ml). 24 h later, cells were either mock-treated with DMSO (–) or treated (+) with either FT671 or GNE-6640 (10 μM) for 24 h and whole-cell lysates were analysed by immunoblotting. D Same cells as in B were transfected with either non-targeting (Ctrl) or USP7 siRNA oligos. […] 24 h post induction, cells were either mock-treated (−) or treated (+) with MG-132 (10 μM) for 6 h and whole-cell lysates were analysed by immunoblotting. […] 24 h post induction, whole-cell lysates were analysed by immunoblotting. […] Inputs and recovered protein complexes were analysed by immunoblotting. […] Inputs and recovered protein complexes were analysed by immunoblotting. […] In (A–E), relative FAN1 protein levels were determined by quantification of FAN1 band intensity (normalized to GAPDH or Lamin B1 loading controls) with the ImageJ software. […]

GFP-FAN1 protein level = experiment: immunoblot of GFP-FAN1 protein levels, U2OS eGFP-FAN1 cells; format: cell-based, human; conditions: USP7-depleted U2OS eGFP-FAN1 cells, MG-132 10 μM for 6 h
Method: as §1

GFP-FAN1 = experiment: cycloheximide chase, FAN1 protein half-life; format: cell-based, human; conditions: U2OS eGFP-FAN1 cells, CHX 100 μg/ml, n = 3
Method: If not stated otherwise, cells were lysed in RIPA buffer (50 mM Tris-HCl, pH 7.5, 150 mM NaCl, 1% IGEPAL, 0.5% sodium deoxycholate, 0.1% SDS) supplemented with phosphatase inhibitors (20 mM NaF and 1 mM Na3VO4) and protease inhibitors (1 mM benzamidine and 0.1 mM PMSF), incubated with Benzonase (Merck) for at least 30 min at 4 °C, and clarified by centrifugation. Proteins were resolved by SDS-PAGE and transferred to nitrocellulose membranes. Immunoblots were performed with the indicated antibodies, and proteins were visualized using the Advansta WesternBright ECL reagent and the Fusion Solo S imaging system. Relative protein levels were determined by quantification of the protein of interest band intensity normalized to the loading control with the ImageJ software. […]
were determined by quantification of FAN1 band intensity (normalized to α-Tubulin) with the ImageJ software. […] 24 h post induction, cells were either mock-treated or treated with CHX (100 μg/ml) for the indicated time points and whole-cell lysates were analysed by immunoblotting (top panel). Relative GFP-FAN1 protein levels were determined by quantification of GFP-FAN1 band intensity (normalized to GAPDH) with the ImageJ software (bottom panel; siCtrl: black square; siUSP7#1: blue triangle; siUSP7#2: cyan inverted triangle). […] Inputs and recovered protein complexes were analysed by immunoblotting. […]

binding of USP7 domain to FAN1 in vitro (FAN1): strongest
Molecule: TRAF domain: purified recombinant biotin-tagged USP7 fragment

Molecule: CC(C)C[C@@H](C=O)NC(=O)[C@H](CC(C)C)NC(=O)[C@H](CC(C)C)NC(=O)OCc1ccccc1 [MG132] (Cbz-Leu-Leu-Leu-aldehyde)
FAN1 levels with proteasome inhibitor (FAN1 protein level): FAN1 levels were restored | FAN1 levels with proteasome inhibitor (GFP-FAN1 protein level): FAN1 levels were restored

Molecule: C[C@@H]1C[C@@H]([C@H](O)CC2CC(=O)NC(=O)C2)C(=O)[C@@H](C)C1 [CHX, cycloheximide]
FAN1 protein half-life (GFP-FAN1): reduced protein half-life
